Assay results taken from patent US11434242B2, “Dopamine-b-hydroxylase inhibitors” (BIAL-PORTELA & Cª, S.A., priority 2017, dated 2022).

Target: T1, Dopamine beta hydroxylase (Homo sapiens, UniProt P09172)
T1 construct: 125 μl of plasma; tissue Instituto Português do Sangue Transplantação; host or cells: human plasma from healthy donors
T1 sequence (P09172 40-617 limits assumed): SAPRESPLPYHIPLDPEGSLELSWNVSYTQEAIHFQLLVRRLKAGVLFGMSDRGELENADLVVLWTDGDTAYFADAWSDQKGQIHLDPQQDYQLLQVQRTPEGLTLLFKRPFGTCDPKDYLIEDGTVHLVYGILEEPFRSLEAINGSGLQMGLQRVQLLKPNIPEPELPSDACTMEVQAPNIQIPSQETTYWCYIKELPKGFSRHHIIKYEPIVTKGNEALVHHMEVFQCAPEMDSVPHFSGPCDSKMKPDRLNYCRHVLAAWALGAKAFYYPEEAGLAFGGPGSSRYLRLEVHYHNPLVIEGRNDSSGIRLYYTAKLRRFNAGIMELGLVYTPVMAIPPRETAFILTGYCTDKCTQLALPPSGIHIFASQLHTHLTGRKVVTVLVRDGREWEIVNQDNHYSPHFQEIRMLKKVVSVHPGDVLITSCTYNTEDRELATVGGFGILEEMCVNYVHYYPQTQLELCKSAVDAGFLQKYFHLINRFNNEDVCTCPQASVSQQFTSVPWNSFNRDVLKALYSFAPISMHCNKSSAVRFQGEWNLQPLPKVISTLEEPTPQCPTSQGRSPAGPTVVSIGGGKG
Assay: Dopamine beta hydroxylase activity in human plasma
Format: biochemical
Conditions: for Plasma (0.01 μM), activity in % of control: inhibitor 0.01 μM; for Plasma (0.1 μM), activity in % of control: inhibitor 0.1 μM
How it was run: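 Octopamine production from tyramine over 45 min at 37° C, measured photometrically at 330 nm after SCX extraction and periodate oxidation against an octopamine standard curve, indicates plasma DβH activity. Compounds tested at final 10, 100 and 1000 nM in human plasma, pH 5.0 cofactor buffer, 10 min preincubation; results as % of control.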

SMILES	Plasma (0.01 μM), activity in % of control	Plasma (0.1 μM), activity in % of control
Cn1c(CCC(=O)N2CCOCC2)c2n(c1=S)C[C@@H](c1c(F)c(F)cc(F)c1F)C2 [Example 318, (R)-3-(2-methyl-3-thioxo-6-(2,3,5,6-tetrafluorophenyl)-2,5,6,7-tetrahydro-3H-pyrrolo[1,2-c]imidazol-1-yl)-1-morpholinopropan-1-one]	88.4 % of control	61.4 % of control
Cn1c(CCC(=O)N2CC3C(C2)C3(C)C)c2n(c1=S)C[C@@H](c1c(F)c(F)cc(F)c1F)C2 (stereo partly drawn) [Example 319, 1-(6,6-dimethyl-3-azabicyclo[3.1.0]hexan-3-yl)-3-((R)-2-methyl-6-(2,3,5,6-tetrafluorophenyl)-3-thioxo-2,5,6,7-tetrahydro-3H-pyrrolo[1,2-c]imidazol-1-yl)propan-1-one]	67.9 % of control	16.5 % of control
Cn1c(CC(=O)N2CCNCC2)c2n(c1=S)C[C@@]1(c3cc(Cl)ccc3F)C[C@@H]21 [Example 320, 2-((5aS,6aR)-5a-(5-chloro-2-fluorophenyl)-2-methyl-3-thioxo-2,3,5,5a,6,6a-hexahydrocyclopropa[3,4]pyrrolo[1,2-c]imidazol-1-yl)-1-(piperazin-1-yl)ethan-1-one]	90.3 % of control	31.1 % of control
Cl.Cn1c(CC(=O)N2CCNCC2)c2n(c1=S)C[C@@]1(c3cc(Br)ccc3F)C[C@@H]21 [Example 321, 2-((5aS,6aR)-5a-(5-bromo-2-fluorophenyl)-2-methyl-3-thioxo-2,3,5,5a,6,6a-hexahydrocyclopropa[3,4]pyrrolo[1,2-c]imidazol-1-yl)-1-(piperazin-1-yl)ethan-1-one Hydrochloride]	89.7 % of control	13.3 % of control
Cl.Cn1c(CCNC2CCCC2)c2n(c1=S)C[C@@]1(c3cc(Cl)ccc3F)C[C@@H]21 [Example 322, (5aS,6aR)-5a-(5-chloro-2-fluorophenyl)-1-(2-(cyclopentylamino)ethyl)-2-methyl-5,5a,6,6a-tetrahydrocyclopropa[3,4]pyrrolo[1,2-c]imidazole-3(2H)-thione Hydrochloride]	62.3 % of control	43.4 % of control
Cn1c(CC(=O)N2CCNC(=O)C2)c2n(c1=S)C[C@@H](c1c(F)c(F)cc(F)c1F)C2 [Example 323, (R)-4-(2-(2-methyl-6-(2,3,5,6-tetrafluorophenyl)-3-thioxo-2,5,6,7-tetrahydro-3H-pyrrolo[1,2-c]imidazol-1-yl)acetyl)piperazin-2-one]	86.3 % of control	43.3 % of control
CN1CCN(C(=O)Cc2c3n(c(=S)n2C)C[C@@H](c2c(F)c(F)cc(F)c2F)C3)CC1=O [Example 324, (R)-1-methyl-4-(2-(2-methyl-6-(2,3,5,6-tetrafluorophenyl)-3-thioxo-2,5,6,7-tetrahydro-3H-pyrrolo[1,2-c]imidazol-1-yl)acetyl)piperazin-2-one]	88.6 % of control	53.1 % of control
Cn1c(CC(=O)N[C@H]2CC[C@H](O)CC2)c2n(c1=S)C[C@@]1(c3cc(Br)ccc3F)C[C@@H]21 [Example 325, 2-((5aS,6aR)-5a-(5-bromo-2-fluorophenyl)-2-methyl-3-thioxo-2,3,5,5a,6,6a-hexahydrocyclopropa[3,4]pyrrolo[1,2-c]imidazol-1-yl)-N-((1r,4R)-4-hydroxycyclohexyl)acetamide]	34.2 % of control	3.8 % of control
CN1CCN(C(=O)Cc2c3n(c(=S)n2C)C[C@@]2(c4cc(Cl)ccc4F)C[C@@H]32)CC1 [Example 326, 2-((5aS,6aR)-5a-(5-chloro-2-fluorophenyl)-2-methyl-3-thioxo-2,3,5,5a,6,6a-hexahydrocyclopropa[3,4]pyrrolo[1,2-c]imidazol-1-yl)-1-(4-methylpiperazin-1-yl)ethan-1-one]	96.6 % of control	59.5 % of control
Cn1c(CC(=O)N[C@@H]2CCCOC2)c2n(c1=S)C[C@H](c1c(F)ccc(Cl)c1F)C2 [Example 327, 2-((S)-6-(3-chloro-2,6-difluorophenyl)-2-methyl-3-thioxo-2,5,6,7-tetrahydro-3H-pyrrolo[1,2-c]imidazol-1-yl)-N—((R)-tetrahydro-2H-pyran-3-yl)acetamide]	49.9 % of control	7.0 % of control
Cn1c(CC(=O)NCc2cnccn2)c2n(c1=S)C[C@H](c1c(F)ccc(Cl)c1F)C2 [Example 328, (S)-2-(6-(3-chloro-2,6-difluorophenyl)-2-methyl-3-thioxo-2,5,6,7-tetrahydro-3H-pyrrolo[1,2-c]imidazol-1-yl)-N-(pyrazin-2-ylmethyl)acetamide]	63.1 % of control	9.4 % of control
Cn1c(CC(=O)N2CCOCC2)c2n(c1=S)C[C@H](c1c(F)ccc(Cl)c1F)C2 [Example 329, (S)-2-(6-(3-chloro-2,6-difluorophenyl)-2-methyl-3-thioxo-2,5,6,7-tetrahydro-3H-pyrrolo[1,2-c]imidazol-1-yl)-1-morpholinoethan-1-one]	41.7 % of control	16.1 % of control
Cl.Cn1c(CCNC2CCCC2)c2n(c1=S)C[C@@]1(c3cc(Br)ccc3F)C[C@@H]21 [Example 330, (5aS,6aR)-5a-(5-bromo-2-fluorophenyl)-1-(2-(cyclopentylamino)ethyl)-2-methyl-5,5a,6,6a-tetrahydrocyclopropa[3,4]pyrrolo[1,2-c]imidazole-3(2H)-thione Hydrochloride]	71.7 % of control	32.5 % of control
Cl.Cn1c(CCN[C@@H]2CCCOC2)c2n(c1=S)C[C@@]1(c3cc(Br)ccc3F)C[C@@H]21 [Example 331, (5aS,6aR)-5a-(5-bromo-2-fluorophenyl)-2-methyl-1-(2-(((R)-tetrahydro-2H-pyran-3-yl)amino)ethyl)-5,5a,6,6a-tetrahydrocyclopropa[3,4]pyrrolo[1,2-c]imidazole-3(2H)-thione Hydrochloride]	77.4 % of control	50.2 % of control
Cl.Cn1c(CC(=O)NCc2ccccn2)c2n(c1=S)C[C@@]1(c3cc(Cl)ccc3F)C[C@@H]21 [Example 332, 2-((5aS,6aR)-5a-(5-chloro-2-fluorophenyl)-2-methyl-3-thioxo-2,3,5,5a,6,6a-hexahydrocyclopropa[3,4]pyrrolo[1,2-c]imidazol-1-yl)-N-(pyridin-2-ylmethyl)acetamide Hydrochloride]	32.8 % of control	2.7 % of control
Cn1c(CC(=O)NC2COC2)c2n(c1=S)C[C@H](c1c(F)ccc(Cl)c1F)C2 [Example 333, (S)-2-(6-(3-chloro-2,6-difluorophenyl)-2-methyl-3-thioxo-2,5,6,7-tetrahydro-3H-pyrrolo[1,2-c]imidazol-1-yl)-N-(oxetan-3-yl)acetamide]	47.5 % of control	11.7 % of control
Cl.Cn1c(CCNCC(F)(F)F)c2n(c1=S)C[C@@]1(c3cc(Br)ccc3F)C[C@@H]21 [Example 334, (5aS,6aR)-5a-(5-bromo-2-fluorophenyl)-2-methyl-1-(2-((2,2,2-trifluoroethyl)amino)ethyl)-5,5a,6,6a-tetrahydrocyclopropa[3,4]pyrrolo[1,2-c]imidazole-3(2H)-thione Hydrochloride]	80.3 % of control	41.9 % of control
Cl.Cn1c(CC(=O)NCc2cnccn2)c2n(c1=S)C[C@@]1(c3cc(Cl)ccc3F)C[C@@H]21 [Example 335, 2-((5aS,6aR)-5a-(5-chloro-2-fluorophenyl)-2-methyl-3-thioxo-2,3,5,5a,6,6a-hexahydrocyclopropa[3,4]pyrrolo[1,2-c]imidazol-1-yl)-N-(pyrazin-2-ylmethyl)acetamide Hydrochloride]	44.9 % of control	8.7 % of control
